# From patent US12048742B2, “Hepatitis C virus peptide compositions and methods of use thereof” (The Governors of the University of Alberta, priority 2018, dated 2024)
# Where “and” joins values, the source holds several entries; their conditions need not be identical. Identical values can stand only once. No end group written: not given here.
# Assays:
# [1] = Solubility of T-cell epitope polypeptides in E1E2 buffer (Protocol 1); assay type: physicochemical; conditions: for solubility in E1E2 buffer (in words): Protocol 1, 1 mg/ml in E1E2 buffer, Nanodrop, FIG. 6, estimates based on A280 nm reading; for solubility: E1E2 buffer (10 mM sodium citrate, 250 mM NaCl, 1 mM EDTA, 0.1% TWEEN 80, pH 6.0), without adding dimethylsulfoxide, read-out: soluble in E1E2 buffer at a concentration of
# Protocol: For example, the peptides TP35-NS3 and TP50C are soluble in E1E2 buffer at a concentration of at least 1 mg/ml. The peptides TP35-NS3 and TP50C are soluble in E1E2 buffer at a concentration of at least 1 mg/ml, without the need for adding dimethylsulfoxide (DMS). In some cases, a T-cell epitope polypeptide suitable for inclusion in a composition of the present disclosure is soluble in E1E2 buffer at a concentration of at least 25 μg/ml, at least 30 μg/ml, at least 35 µg/ml, at least 50 μg/ml, at least 75 μg/ml, at least 100 μg/ml, at least 250 μg/ml, at least 500 µg/ml, at least 750 μg/ml, or at least 1 mg/ml.
# Protocol 1 The solubility of the T-cell epitope polypeptides in E1E2 buffer was determined. E1E2 buffer: 10 mM sodium citrate, 250 mM NaCl, 1 mM ethylenediaminetetraacetic acid (EDTA), 0.1% non-ionic detergent TWEEN® 80, pH 6.0. Lyophilized T-cell epitope polypeptides were individually added to E1E2 buffer at a final concentration of 1 mg T-cell epitope polypeptide per ml E1E2 buffer, to generate T-cell epitope polypeptide/E1E2 solutions. The T-cell epitope polypeptide/E1E2 solutions were vortexed for 3 seconds. The T-cell epitope polypeptide/E1E2 solutions were then centrifuged at 10,000×g for 30 seconds. […] After centrifugation, the concentration of peptides was measured using Nanodrop (Thermo Fisher).
# Solubility values shown in FIG. 6 are estimates based on A280 nm reading.
# FIG. 6 = experiment: FIG. 6
# Description: Table printed on a drawing sheet, FIG. 6
# The patent's description of the figure: FIG. 6 provides the solubility of various T-cell epitope polypeptides in an aqueous buffer. TP35-NS3: SEQ ID NO:133; TP35-NS3(Lys)3: SEQ ID NO:302; TP42: SEQ ID NO:228; TP45 (C-terminal CNV replaced with KKK): SEQ ID NO:248; TP48: SEQ ID NO:254; TP48(Lys)3: SEQ ID NO:257; and TP50-C: SEQ ID NO:148.
# First reader's note: Blanks inside the sequences only mark line breaks within the printed cell.
# [2] = Solubility of reconstituted lyophilized peptides (Protocol 3); assay type: physicochemical; conditions: Protocol 3, reconstituted in E1E2 buffer, E1E2 buffer without Tween, or water; shaking 2 h 30 min at room temperature; FIG. 13
# Protocol: Protocol 3 TP42, TP45(Lys)3, and TP48 were lyophilized. The lyophilized peptides were reconstituted in: i) E1E2 buffer; or ii) E1E2 buffer without Tween; or iii) water. The reconstituted peptide solutions were vigorously vortexed for 20 seconds. After vortexing, the peptide solutions were incubated at room temperature with continuous shaking at 300 rpm for 2 hours 30 minutes. Afterwards, peptide solutions were centrifuged at 5000×g for 1 minute. After centrifugation, the concentration of the peptides in the supernatant was measured.
# [3] = TP42-2: […] MW= 4543 g/mol; EC= 3105 (secreted protein)
# Protocol: Table printed on a drawing sheet, FIG. 27
# Title: TP42-2: […] MW= 4543 g/mol; EC= 3105 (secreted protein)
# The patent's description of the figure: FIG. 27 depicts solubility data for a TP33 T-cell epitope polypeptide (SEQ ID NO:279) and a TP42-2 T-cell epitope polypeptide (SEQ ID NO:291).
# First reader's note: The sequence, MW and EC of TP42-2 are printed above the table; each row is one solution in which solubility was tested.
molecule,measurement,setting,value
CC[C@H](C)[C@H](NC(=O)[C@@H](NC(=O)[C@H](CO)NC(=O)[C@H](CC(=O)O)NC(=O)[C@H](Cc1ccccc1)NC(=O)[C@H](CC(=O)O)NC(=O)CNC(=O)[C@@H](NC(=O)[C@H](Cc1ccccc1)NC(=O)CNC(=O)[C@@H](NC(=O)[C@H](CCSC)NC(=O)[C@H](CC(C)C)NC(=O)[C@H](C)NC(=O)[C@H](CC(=O)O)NC(=O)[C@@H](NC(=O)[C@H](C)NC(=O)[C@@H](NC(=O)[C@@H](NC(=O)[C@@H](NC(=O)[C@@H](NC(=O)[C@H](CC(=O)O)NC(=O)CNC(=O)[C@H](CO)NC(=O)[C@@H](NC(=O)[C@@H]1CCCN1C(=O)[C@@H](NC(=O)[C@@H](NC(=O)[C@H](CO)NC(=O)[C@@H](NC(=O)[C@H](CC(=O)O)NC(=O)[C@H](CC(C)C)NC(=O)CNC(=O)[C@H](CCCNC(=N)N)NC(=O)[C@H](Cc1ccc(O)cc1)NC(=O)[C@H](Cc1ccc(O)cc1)NC(=O)[C@H](C)NC(=O)[C@@H](NC(=O)[C@H](C)NC(=O)[C@H](CC(N)=O)NC(=O)[C@@H](N)CC(C)C)C(C)C)C(C)C)C(C)C)[C@@H](C)CC)[C@@H](C)O)C(C)C)C(C)C)C(C)C)C(C)C)[C@@H](C)O)[C@@H](C)O)[C@@H](C)O)C(C)C)C(=O)N[C@@H](CC(=O)O)C(=O)N[C@@H](CCCCN)C(=O)N[C@@H](CCCCN)C(=O)N[C@@H](CCCCN)C(=O)O,solubility in E1E2 buffer (in words),[1],much lower solubility
GTEGEIPFYGKAIPLEQIKGGRHLIFCHSKKKCDELAAKLTG [TP42] [listing 1 of 2 here],Measured Concentration,FIG. 6,0.079 mg/mL
same,Solubility (%),FIG. 6,12%
GTEGEIPFYGKAIPLEQIKGGRHLIFCHSKKKCDELAAKLTG [TP42] [listing 2 of 2 here],solubility (in words),[2],good solubility
same,visible precipitation in E1E2 buffer,"[1]; Protocol 1, 1 mg peptide per ml E1E2 buffer, after vortexing and centrifugation at 10,000×g",precipitation was visible
same,solubility in E1E2 buffer (in words),[1],much lower solubility
GVYLLPRRGPRLGVRATRKTSERSQPRGRRQPIPKARRSEGRSWAQPGYP [TP50-C],solubility,[1],≥ 1000 µg/mL
same,solubility in E1E2 buffer (in words),[1],good solubility
ILRRHVGPGEGAVQWMNRLIAFASRGNHVSPTHYVPESDASARVTQIL [TP48],solubility (in words),[2],good solubility
ILRRHVGPGEGAVQWMNRLIAFASRGNHVSPTHYVPESDASARVTQILKKK [TP48-(Lys)3],solubility in E1E2 buffer (in words),[1],good solubility
KGGRHLIFCHSKKKCDELAAKLTGLGLNAVAYYRGLDVSVIP [TP42-2],Solubility | Measured,[3],415 µg/mL and 215 µg/mL and 233 µg/mL
same,Solubility | Percent (%),[3],83% and 43% and 47%
KSTKVPAAYAAQGYKVLVLNPSVAATLGFGAYMSK [TP35-NS3],solubility,[1],≥ 1000 µg/mL
same,solubility in E1E2 buffer (in words),[1],good solubility
KSTKVPAAYAAQGYKVLVLNPSVAATLGFGAYMSKKKK [TP35-NS3-(Lys)3],solubility in E1E2 buffer (in words),[1],good solubility
